#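 48-hour exposure; five concentrations; linearly interpolated endpoints. At the GI50, growth is halved. TGI is the concentration that stops growth completely.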
# Key:
# Test in all cases: inhibition of tumour cell growth, NCI panel, 48 h
# SF-295 CNS = test system: SF-295 CNS
# MDA-MB-435 = test system: MDA-MB-435
# A498 renal = test system: A498 renal
# BT-549 breast = test system: BT-549 breast
# SNB-19 CNS = test system: SNB-19 CNS
# NCI-H460 lung = test system: NCI-H460 lung
# NCI/ADR-RES ovarian = test system: NCI/ADR-RES ovarian
# OVCAR-8 ovarian = test system: OVCAR-8 ovarian
# U251 CNS = test system: U251 CNS
# NCI-H23 lung = test system: NCI-H23 lung
# HCT-116 colon = test system: HCT-116 colon
# SF-268 CNS = test system: SF-268 CNS
# HT29 colon = test system: HT29 colon
# SK-MEL-5 melanoma = test system: SK-MEL-5 melanoma
# COLO 205 colon = test system: COLO 205 colon
# HL-60(TB) leukemia = test system: HL-60(TB) leukemia
# EKVX NSCLC = test system: EKVX NSCLC
# SN12C renal = test system: SN12C renal
# LOX IMVI melanoma = test system: LOX IMVI melanoma
# HCC-2998 colon = test system: HCC-2998 colon
# T-47D breast = test system: T-47D breast
# HOP-62 NSCLC = test system: HOP-62 NSCLC
# CCRF-CEM leukemia = test system: CCRF-CEM leukemia
# DU-145 prostate = test system: DU-145 prostate
# HCT-15 colon = test system: HCT-15 colon
# UACC-62 melanoma = test system: UACC-62 melanoma
# KM12 colon = test system: KM12 colon
# HS 578T breast = test system: HS 578T breast
# K-562 leukemia = test system: K-562 leukemia
# OVCAR-5 ovarian = test system: OVCAR-5 ovarian
# OVCAR-3 ovarian = test system: OVCAR-3 ovarian
# MCF7 breast = test system: MCF7 breast
# OVCAR-4 ovarian = test system: OVCAR-4 ovarian
# SW-620 colon = test system: SW-620 colon
# SK-OV-3 ovarian = test system: SK-OV-3 ovarian
# ACHN renal = test system: ACHN renal
# NCI-H226 lung = test system: NCI-H226 lung
# RPMI-8226 leukemia = test system: RPMI-8226 leukemia
# NCI-H522 lung = test system: NCI-H522 lung
# MALME-3M melanoma = test system: MALME-3M melanoma
# SR leukemia = test system: SR leukemia
# SF-539 CNS = test system: SF-539 CNS
# HOP-92 NSCLC = test system: HOP-92 NSCLC
# A549 NSCLC = test system: A549 NSCLC
# CAKI-1 renal = test system: CAKI-1 renal
# PC-3 prostate = test system: PC-3 prostate
# 786-0 renal = test system: 786-0 renal
# SNB-75 CNS = test system: SNB-75 CNS
# IGROV1 ovarian = test system: IGROV1 ovarian
# M14 melanoma = test system: M14 melanoma
# MOLT-4 leukemia = test system: MOLT-4 leukemia
# UACC-257 melanoma = test system: UACC-257 melanoma
# MDA-MB-231 breast = test system: MDA-MB-231 breast
# SK-MEL-2 melanoma = test system: SK-MEL-2 melanoma
# TK-10 renal = test system: TK-10 renal
# RXF 393 renal = test system: RXF 393 renal
# SK-MEL-28 melanoma = test system: SK-MEL-28 melanoma
# UO-31 renal = test system: UO-31 renal
smiles,measurement,setting,value
Nc1ccc2[nH]c(C(=O)N3CC(CCl)c4c3cc(N)c3ccccc43)cc2c1 (stereo not given),TGI,SF-295 CNS,< 0.01 µM
same,TGI,MDA-MB-435,0.025 µM
same,TGI,A498 renal,0.0288 µM
same,TGI,BT-549 breast,< 0.0244 µM
same,TGI,SNB-19 CNS,< 0.0489 µM
same,TGI,NCI-H460 lung,< 0.01 µM
same,TGI,NCI/ADR-RES ovarian,< 0.01 µM
same,TGI,OVCAR-8 ovarian,0.0236 µM
same,TGI,U251 CNS,0.147 µM
same,TGI,NCI-H23 lung,< 0.01 µM
same,TGI,HCT-116 colon,1.09 µM
same,TGI,SF-268 CNS,< 0.01 µM
same,TGI,HT29 colon,< 0.0229 µM
same,TGI,SK-MEL-5 melanoma,< 0.0414 µM
same,TGI,COLO 205 colon,0.0223 µM
same,TGI,HL-60(TB) leukemia,0.0162 µM
same,TGI,EKVX NSCLC,0.0313 µM
same,TGI,SN12C renal,0.0325 µM
same,TGI,LOX IMVI melanoma,0.0145 µM
same,TGI,HCC-2998 colon,< 0.01 µM
same,TGI,T-47D breast,0.455 µM
same,TGI,HOP-62 NSCLC,0.0556 µM
same,TGI,CCRF-CEM leukemia,> 100 µM
same,TGI,DU-145 prostate,< 0.01 µM
same,TGI,HCT-15 colon,1.28 µM
same,TGI,UACC-62 melanoma,0.0101 µM
same,TGI,KM12 colon,0.0714 µM
same,TGI,HS 578T breast,0.057 µM
same,TGI,K-562 leukemia,> 100 µM
same,TGI,OVCAR-5 ovarian,> 100 µM
same,TGI,OVCAR-3 ovarian,> 100 µM
same,TGI,MCF7 breast,0.153 µM
same,TGI,OVCAR-4 ovarian,< 0.01 µM
same,TGI,SW-620 colon,0.124 µM
same,TGI,SK-OV-3 ovarian,1.21 µM
same,TGI,ACHN renal,0.0103 µM
same,TGI,NCI-H226 lung,< 0.01 µM
same,TGI,RPMI-8226 leukemia,< 0.0255 µM
Nc1cc(N2CCCC2)nc(=O)n1Cc1ccccc1,TGI,NCI-H522 lung,> 100 µM
same,TGI,SF-295 CNS,> 100 µM
same,TGI,MDA-MB-435,> 100 µM
same,TGI,BT-549 breast,> 100 µM
same,TGI,SNB-19 CNS,> 100 µM
same,TGI,NCI-H460 lung,> 100 µM
same,TGI,NCI/ADR-RES ovarian,> 100 µM
same,TGI,OVCAR-8 ovarian,> 100 µM
same,TGI,U251 CNS,> 100 µM
same,TGI,NCI-H23 lung,> 100 µM
same,TGI,HCT-116 colon,> 100 µM
same,TGI,SF-268 CNS,> 100 µM
same,TGI,MALME-3M melanoma,> 100 µM
same,TGI,HT29 colon,> 100 µM
same,TGI,SR leukemia,> 100 µM
same,TGI,SK-MEL-5 melanoma,> 100 µM
same,TGI,COLO 205 colon,> 100 µM
same,TGI,SF-539 CNS,> 100 µM
same,TGI,HL-60(TB) leukemia,> 100 µM
same,TGI,HOP-92 NSCLC,> 100 µM
same,TGI,EKVX NSCLC,> 100 µM
same,TGI,A549 NSCLC,> 100 µM
same,TGI,CAKI-1 renal,> 100 µM
same,TGI,PC-3 prostate,> 100 µM
same,TGI,SN12C renal,> 100 µM
same,TGI,LOX IMVI melanoma,> 100 µM
same,TGI,786-0 renal,> 100 µM
same,TGI,SNB-75 CNS,> 100 µM
same,TGI,IGROV1 ovarian,> 100 µM
same,TGI,HOP-62 NSCLC,> 100 µM
same,TGI,M14 melanoma,> 100 µM
same,TGI,MOLT-4 leukemia,> 100 µM
same,TGI,CCRF-CEM leukemia,> 100 µM
same,TGI,DU-145 prostate,> 100 µM
same,TGI,HCT-15 colon,> 100 µM
same,TGI,KM12 colon,> 100 µM
same,TGI,K-562 leukemia,> 100 µM
same,TGI,OVCAR-5 ovarian,> 100 µM
same,TGI,MCF7 breast,> 100 µM
same,TGI,OVCAR-4 ovarian,> 100 µM
same,TGI,UACC-257 melanoma,> 100 µM
same,TGI,MDA-MB-231 breast,> 100 µM
same,TGI,SK-MEL-2 melanoma,> 100 µM
same,TGI,SW-620 colon,> 100 µM
same,TGI,TK-10 renal,> 100 µM
same,TGI,ACHN renal,> 100 µM
same,TGI,NCI-H226 lung,> 100 µM
same,TGI,RPMI-8226 leukemia,> 100 µM
Cc1c2ccc(N(C)c3ccnc(Nc4cccc(S(N)(=O)=O)c4)n3)cc2nn1C,GI50,NCI-H522 lung,6.09 µM
same,TGI,NCI-H522 lung,23.7 µM
same,GI50,SF-295 CNS,6.81 µM
same,TGI,SF-295 CNS,> 19.9 µM
same,GI50,MDA-MB-435,6.74 µM
same,TGI,MDA-MB-435,> 22.3 µM
same,GI50,A498 renal,1.89 µM
same,TGI,A498 renal,> 17.9 µM
same,GI50,BT-549 breast,9.48 µM
same,TGI,BT-549 breast,> 25 µM
same,GI50,SNB-19 CNS,> 22.9 µM
same,TGI,SNB-19 CNS,> 25 µM
same,GI50,NCI-H460 lung,7.23 µM
same,TGI,NCI-H460 lung,> 25 µM
same,GI50,NCI/ADR-RES ovarian,> 19.7 µM
same,TGI,NCI/ADR-RES ovarian,> 25 µM
same,GI50,OVCAR-8 ovarian,9.91 µM
same,TGI,OVCAR-8 ovarian,> 25 µM
same,GI50,U251 CNS,10.9 µM
same,TGI,U251 CNS,> 25 µM
same,GI50,NCI-H23 lung,7.49 µM
same,TGI,NCI-H23 lung,> 25 µM
same,GI50,HCT-116 colon,8.23 µM
same,TGI,HCT-116 colon,> 25 µM
same,GI50,SF-268 CNS,8.51 µM
same,TGI,SF-268 CNS,> 25 µM
same,GI50,MALME-3M melanoma,5.74 µM
same,TGI,MALME-3M melanoma,20.2 µM
same,GI50,HT29 colon,8.03 µM
same,TGI,HT29 colon,> 25 µM
same,GI50,SK-MEL-5 melanoma,6.01 µM
same,TGI,SK-MEL-5 melanoma,> 17.1 µM
same,GI50,COLO 205 colon,12.5 µM
same,TGI,COLO 205 colon,> 25 µM
same,GI50,SF-539 CNS,2.39 µM
same,TGI,SF-539 CNS,> 20.4 µM
same,GI50,HL-60(TB) leukemia,8.44 µM
same,TGI,HL-60(TB) leukemia,> 19.1 µM
same,GI50,HOP-92 NSCLC,5.41 µM
same,TGI,HOP-92 NSCLC,17.9 µM
same,GI50,EKVX NSCLC,11.8 µM
same,TGI,EKVX NSCLC,> 25 µM
same,GI50,A549 NSCLC,11.9 µM
same,TGI,A549 NSCLC,> 25 µM
same,GI50,RXF 393 renal,7.14 µM
same,TGI,RXF 393 renal,> 22.7 µM
same,GI50,CAKI-1 renal,7.73 µM
same,TGI,CAKI-1 renal,24.7 µM
same,GI50,PC-3 prostate,9.23 µM
same,TGI,PC-3 prostate,> 25 µM
same,GI50,SN12C renal,8.75 µM
same,TGI,SN12C renal,> 25 µM
same,GI50,LOX IMVI melanoma,6.86 µM
same,TGI,LOX IMVI melanoma,> 25 µM
same,GI50,HCC-2998 colon,18.9 µM
same,TGI,HCC-2998 colon,> 25 µM
same,GI50,786-0 renal,13.2 µM
same,TGI,786-0 renal,> 25 µM
same,GI50,SNB-75 CNS,4.33 µM
same,TGI,SNB-75 CNS,> 22.9 µM
same,GI50,IGROV1 ovarian,10.1 µM
same,TGI,IGROV1 ovarian,> 25 µM
same,GI50,T-47D breast,5.27 µM
same,TGI,T-47D breast,21.8 µM
same,GI50,HOP-62 NSCLC,9.03 µM
same,TGI,HOP-62 NSCLC,> 25 µM
same,GI50,M14 melanoma,9.73 µM
same,TGI,M14 melanoma,> 25 µM
same,GI50,MOLT-4 leukemia,8.81 µM
same,TGI,MOLT-4 leukemia,> 23.6 µM
same,GI50,CCRF-CEM leukemia,9.21 µM
same,TGI,CCRF-CEM leukemia,> 25 µM
same,GI50,DU-145 prostate,9.06 µM
same,TGI,DU-145 prostate,> 25 µM
same,GI50,HCT-15 colon,9.34 µM
same,TGI,HCT-15 colon,> 25 µM
same,GI50,UACC-62 melanoma,8.38 µM
same,TGI,UACC-62 melanoma,> 25 µM
same,GI50,KM12 colon,8.12 µM
same,TGI,KM12 colon,> 25 µM
same,GI50,HS 578T breast,6.8 µM
same,TGI,HS 578T breast,> 25 µM
same,GI50,K-562 leukemia,5.54 µM
same,TGI,K-562 leukemia,> 25 µM
same,GI50,OVCAR-5 ovarian,11.4 µM
same,TGI,OVCAR-5 ovarian,> 25 µM
same,GI50,OVCAR-3 ovarian,14.2 µM
same,TGI,OVCAR-3 ovarian,> 25 µM
same,GI50,MCF7 breast,8.95 µM
same,TGI,MCF7 breast,> 25 µM
same,GI50,OVCAR-4 ovarian,6.23 µM
same,TGI,OVCAR-4 ovarian,> 25 µM
same,GI50,SK-MEL-28 melanoma,9.95 µM
same,TGI,SK-MEL-28 melanoma,> 25 µM
same,GI50,UO-31 renal,5.96 µM
same,TGI,UO-31 renal,> 23.1 µM
same,GI50,UACC-257 melanoma,12.2 µM
same,TGI,UACC-257 melanoma,> 25 µM
same,GI50,MDA-MB-231 breast,8.47 µM
same,TGI,MDA-MB-231 breast,> 25 µM
same,GI50,SK-MEL-2 melanoma,7.06 µM
same,TGI,SK-MEL-2 melanoma,16.7 µM
same,GI50,SW-620 colon,11.7 µM
same,TGI,SW-620 colon,> 25 µM
same,GI50,SK-OV-3 ovarian,7.03 µM
same,TGI,SK-OV-3 ovarian,20.6 µM
same,GI50,TK-10 renal,10.5 µM
same,TGI,TK-10 renal,> 25 µM
same,GI50,ACHN renal,8.12 µM
same,TGI,ACHN renal,> 25 µM
same,GI50,NCI-H226 lung,6.2 µM
same,TGI,NCI-H226 lung,> 25 µM
same,GI50,RPMI-8226 leukemia,13.6 µM
same,TGI,RPMI-8226 leukemia,> 25 µM

# — PubChem BioAssay (NCI)
